{"source": "patent US9617267B2", "about": "“Compounds and methods for kinase modulation, and indications therefor” (Plexxikon Inc., priority 2009, dated 2017)", "key": {"CYP2C19": {"target": "CYP2C19 (Homo sapiens (Human), UniProt P33261)", "sequence (P33261 whole entry)": "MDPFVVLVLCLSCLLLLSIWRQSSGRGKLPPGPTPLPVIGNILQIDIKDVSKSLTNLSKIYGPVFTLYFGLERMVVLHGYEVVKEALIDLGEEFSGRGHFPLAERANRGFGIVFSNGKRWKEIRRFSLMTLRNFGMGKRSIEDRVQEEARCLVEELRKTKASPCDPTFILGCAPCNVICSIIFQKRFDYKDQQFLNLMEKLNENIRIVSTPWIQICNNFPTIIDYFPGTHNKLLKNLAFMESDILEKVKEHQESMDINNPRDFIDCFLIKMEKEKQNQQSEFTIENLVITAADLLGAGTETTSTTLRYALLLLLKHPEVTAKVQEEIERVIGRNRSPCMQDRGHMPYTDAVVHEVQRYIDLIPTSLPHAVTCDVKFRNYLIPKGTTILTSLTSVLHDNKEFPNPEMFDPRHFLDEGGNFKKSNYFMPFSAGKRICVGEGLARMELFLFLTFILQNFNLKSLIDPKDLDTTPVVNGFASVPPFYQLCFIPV", "experiment": "CYP enzyme inhibition, fluorescent substrate (CEC)", "procedure,_shortened": "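Human CYP activity was followed by the fluorescence of the metabolized product of a known substrate, which falls as metabolism is inhibited. Compounds from 100 mM DMSO stocks were serially diluted 1:1 over 10 points in co-factor mix and preincubated 10 min at 37 °C. IC50 was fitted from signal versus concentration.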"}, "CYP3A4(BFC)": {"target": "CYP3A4(BFC) (Homo sapiens (Human), UniProt P08684)", "sequence (P08684 whole entry)": "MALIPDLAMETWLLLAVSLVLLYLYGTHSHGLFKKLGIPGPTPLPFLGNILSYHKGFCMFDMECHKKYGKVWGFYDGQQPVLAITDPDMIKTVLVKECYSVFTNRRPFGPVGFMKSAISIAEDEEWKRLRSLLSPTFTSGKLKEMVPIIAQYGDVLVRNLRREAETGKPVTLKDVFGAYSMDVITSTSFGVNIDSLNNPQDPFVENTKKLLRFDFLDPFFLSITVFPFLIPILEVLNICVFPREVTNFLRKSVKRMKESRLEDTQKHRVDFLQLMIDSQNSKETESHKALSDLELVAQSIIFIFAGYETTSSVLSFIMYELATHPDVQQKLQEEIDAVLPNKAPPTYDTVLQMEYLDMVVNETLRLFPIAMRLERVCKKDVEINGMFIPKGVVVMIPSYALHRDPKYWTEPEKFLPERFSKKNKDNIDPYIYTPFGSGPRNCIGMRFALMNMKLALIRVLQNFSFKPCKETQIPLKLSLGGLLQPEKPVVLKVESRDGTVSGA", "experiment": "CYP enzyme inhibition, fluorescent substrate BFC", "conditions": "read-out: Cyp IC50 3A4(BFC); CYP3A4, substrate BFC", "procedure": "(§1) CYP (Cytochrome P450) enzymes are the major drug metabolizing enzymes present in the liver. The inhibition of CYP enzyme activity (IC50) for each of CYP1A2, CYP2C19, CYP2C9, CYP2D6, CYP3A4(BFC) and CYP3A4(BQ) is determined for compounds, where inhibition of metabolism of a known substrate leads to a decrease in the fluorescence of the metabolized product. The fluorescence of the product is monitored as a function of compound concentration.\n(§2) Compounds are dissolved in dimethyl sulfoxide to a concentration of 100 mM. These are diluted 1 μL into 82 μL of acetonitrile. […] These are then serially diluted 1:1 (160 μL to 160 μL co-factor mix) for a total of 10 points. A 10 μL aliquot of this final mixture is dispensed into 384 well assay plates and incubated for 10 minutes at 37° C. […] Assay plates are incubated at 37° C. […] The signal versus compound concentration is used to determine the IC50. The enzymes and substrates for this assay are obtained from BD Biosciences."}, "CYP2C9": {"target": "CYP2C9 (Homo sapiens (Human), UniProt P11712)", "sequence (P11712 whole entry)": "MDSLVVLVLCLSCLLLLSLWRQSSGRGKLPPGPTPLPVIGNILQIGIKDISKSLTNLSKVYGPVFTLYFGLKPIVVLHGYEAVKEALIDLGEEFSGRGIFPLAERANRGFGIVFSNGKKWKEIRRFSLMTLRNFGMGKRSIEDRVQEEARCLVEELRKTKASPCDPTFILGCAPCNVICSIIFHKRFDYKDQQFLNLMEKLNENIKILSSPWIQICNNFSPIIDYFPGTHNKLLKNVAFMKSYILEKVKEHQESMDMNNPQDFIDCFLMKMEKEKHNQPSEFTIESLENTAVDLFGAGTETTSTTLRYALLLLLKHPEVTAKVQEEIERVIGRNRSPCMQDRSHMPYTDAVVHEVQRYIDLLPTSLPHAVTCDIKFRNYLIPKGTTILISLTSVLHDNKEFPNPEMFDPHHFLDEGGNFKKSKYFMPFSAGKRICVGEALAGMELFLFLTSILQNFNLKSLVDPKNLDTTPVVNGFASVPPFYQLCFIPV", "experiment": "CYP enzyme inhibition, fluorescent substrate (MFC)", "procedure": "as §1, §2"}, "c-Raf-1": {"target": "c-Raf-1 (Homo sapiens, UniProt P04049)", "sequence (P04049 whole entry, looked up)": "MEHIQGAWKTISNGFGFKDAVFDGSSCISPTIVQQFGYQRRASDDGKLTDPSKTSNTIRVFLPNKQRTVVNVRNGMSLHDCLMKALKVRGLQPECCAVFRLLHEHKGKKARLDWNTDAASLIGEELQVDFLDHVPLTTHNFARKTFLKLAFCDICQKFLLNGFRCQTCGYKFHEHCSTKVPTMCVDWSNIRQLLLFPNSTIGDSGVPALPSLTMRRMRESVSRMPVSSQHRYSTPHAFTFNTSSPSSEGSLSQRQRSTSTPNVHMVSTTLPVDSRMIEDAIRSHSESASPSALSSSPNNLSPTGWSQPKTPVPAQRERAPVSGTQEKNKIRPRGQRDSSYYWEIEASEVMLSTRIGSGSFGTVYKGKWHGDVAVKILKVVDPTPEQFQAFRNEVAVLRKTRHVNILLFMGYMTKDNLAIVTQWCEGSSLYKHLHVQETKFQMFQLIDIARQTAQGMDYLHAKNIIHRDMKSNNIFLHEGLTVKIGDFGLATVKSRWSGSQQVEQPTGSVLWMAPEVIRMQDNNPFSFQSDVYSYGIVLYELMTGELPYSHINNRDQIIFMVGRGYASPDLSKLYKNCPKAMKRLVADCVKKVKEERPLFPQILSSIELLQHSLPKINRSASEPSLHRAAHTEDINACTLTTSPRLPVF", "experiment": "c-Raf-1 kinase activity biochemical assay (AlphaScreen, biotin-MEK1 phosphorylation)", "procedure,_shortened": "(§3)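 Biotin-MEK1 phosphorylation measured after 45 min kinase reaction at RT with 100 μM ATP final; compounds tested at 8 points from 0.1 mM DMSO stock.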"}, "[1]": {"experiment": "Relative solubility by turbidity threshold concentration in aqueous buffers (pH 1.5, 4.5, 6.8, 7.4)", "type": "physicochemical", "conditions": "for turbidity threshold (L, M, H) 1.4: pH 1.4 [sic] (method: SGF pH 1.5); for turbidity threshold (L, M, H) 7.4: pH 7.4 (HEPES); for turbidity threshold (L, M, H) 4.5: pH 4.5 (SIF)", "procedure,_shortened": "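Solubility class (high >250 μM, moderate 31.3–250 μM, low <31.3 μM) comes from the concentration where absorbance reaches a 0.01 threshold, averaged across 490/535/650 nm. Samples were compound dilutions from DMSO stock, 1 μL into 99 μL buffer at pH 1.5, 4.5, 6.8 or 7.4.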"}, "CYP2D6": {"target": "CYP2D6 (Homo sapiens (Human), UniProt P10635)", "sequence (P10635 whole entry)": "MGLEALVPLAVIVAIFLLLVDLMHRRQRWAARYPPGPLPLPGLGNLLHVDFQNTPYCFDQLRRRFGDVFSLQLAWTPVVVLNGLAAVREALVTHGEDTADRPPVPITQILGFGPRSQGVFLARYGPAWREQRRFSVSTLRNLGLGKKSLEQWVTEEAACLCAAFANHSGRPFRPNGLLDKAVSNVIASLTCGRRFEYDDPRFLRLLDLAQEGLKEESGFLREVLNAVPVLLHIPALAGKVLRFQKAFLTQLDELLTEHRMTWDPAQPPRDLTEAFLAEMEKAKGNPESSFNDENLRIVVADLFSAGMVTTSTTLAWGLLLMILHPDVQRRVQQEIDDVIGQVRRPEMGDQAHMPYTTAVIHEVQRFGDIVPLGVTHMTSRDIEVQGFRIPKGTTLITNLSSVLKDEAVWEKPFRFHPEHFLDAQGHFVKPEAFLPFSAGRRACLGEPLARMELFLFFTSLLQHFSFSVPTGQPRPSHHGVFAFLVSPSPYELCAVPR", "experiment": "CYP enzyme inhibition, fluorescent substrate (AMMC)", "type": "in vitro ADME", "conditions": "read-out: Cyp IC50 2D6", "procedure": "as §1\n(§4) Compounds are dissolved in dimethyl sulfoxide to a concentration of 100 mM. These are diluted 1 μL into 82 μL of acetonitrile. An 11 μL aliquot of this solution is then added to 204 μL of cofactor mix (1.3% NADPH Regeneration system Solution A, 1.04% NADPH Regeneration system Solution B from BD Biosciences, 5% acetonitrile and 0.05% dimethyl sulfoxide). These are then serially diluted 1:1 (160 μL to 160 μL co-factor mix) for a total of 10 points. A 10 μL aliquot of this final mixture is dispensed into 384 well assay plates and incubated for 10 minutes at 37° C. Enzyme and substrate mix (10 μL; 0.5 pmol CYP1A2/5 μM CEC; 1.0 pmol CYP2C9/75 μM MFC; 0.5 pmol CYP2C19/25 μM CEC; 1.5 pmol CYP2D6/1.5 μM AMMC; 1.0 pmol CYP3A4/50 μM BFC; or 1.0 pmol CYP3A4/40 μM BQ) is added to these assay plates. Assay plates are incubated at 37° C. (CYP1A2-15 min; CYP2C9-45 min; CYP2C19, 2D6 and 3A4-30 min) and read in a Tecan Safire 2 plate reader (CYP1A2, 2C19 and 3A4 409 ex/460 em; CYP2C9 and 2D6 409 ex/530 em). The signal versus compound concentration is used to determine the IC50. The enzymes and substrates for this assay are obtained from BD Biosciences."}, "B-Raf V600E": {"target": "B-Raf V600E (Homo sapiens (Human), UniProt P15056, V600E)", "sequence (P15056 whole entry V600E)": "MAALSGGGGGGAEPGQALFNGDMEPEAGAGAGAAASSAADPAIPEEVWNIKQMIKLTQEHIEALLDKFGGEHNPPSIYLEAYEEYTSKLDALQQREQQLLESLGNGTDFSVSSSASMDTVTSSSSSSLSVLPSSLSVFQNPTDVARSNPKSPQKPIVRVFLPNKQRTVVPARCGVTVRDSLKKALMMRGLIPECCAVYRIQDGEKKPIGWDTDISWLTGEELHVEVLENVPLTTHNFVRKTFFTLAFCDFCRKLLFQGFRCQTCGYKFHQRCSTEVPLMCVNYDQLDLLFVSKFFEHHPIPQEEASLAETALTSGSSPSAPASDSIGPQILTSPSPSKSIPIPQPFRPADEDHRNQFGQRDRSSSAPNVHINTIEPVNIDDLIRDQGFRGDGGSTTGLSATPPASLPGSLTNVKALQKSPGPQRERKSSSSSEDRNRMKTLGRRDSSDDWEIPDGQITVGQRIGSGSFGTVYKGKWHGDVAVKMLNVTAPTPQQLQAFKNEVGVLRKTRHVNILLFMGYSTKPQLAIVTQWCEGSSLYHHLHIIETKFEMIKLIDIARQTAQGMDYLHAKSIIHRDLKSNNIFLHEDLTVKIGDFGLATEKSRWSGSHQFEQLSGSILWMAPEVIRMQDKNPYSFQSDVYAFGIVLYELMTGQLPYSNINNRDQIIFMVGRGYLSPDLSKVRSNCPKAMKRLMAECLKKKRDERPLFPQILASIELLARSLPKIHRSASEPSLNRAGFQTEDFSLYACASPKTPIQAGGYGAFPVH", "experiment": "B-Raf V600E kinase activity biochemical assay (AlphaScreen, biotin-MEK1 phosphorylation)", "conditions": "for IC50: B-Raf V600E; for Biochemical activity ratio V600E/C: ratio of IC50 B-Raf V600E / c-Raf-1", "procedure,_shortened": "as §3"}, "CYP1A2": {"target": "CYP1A2 (Homo sapiens (Human), UniProt P05177)", "sequence (P05177 whole entry)": "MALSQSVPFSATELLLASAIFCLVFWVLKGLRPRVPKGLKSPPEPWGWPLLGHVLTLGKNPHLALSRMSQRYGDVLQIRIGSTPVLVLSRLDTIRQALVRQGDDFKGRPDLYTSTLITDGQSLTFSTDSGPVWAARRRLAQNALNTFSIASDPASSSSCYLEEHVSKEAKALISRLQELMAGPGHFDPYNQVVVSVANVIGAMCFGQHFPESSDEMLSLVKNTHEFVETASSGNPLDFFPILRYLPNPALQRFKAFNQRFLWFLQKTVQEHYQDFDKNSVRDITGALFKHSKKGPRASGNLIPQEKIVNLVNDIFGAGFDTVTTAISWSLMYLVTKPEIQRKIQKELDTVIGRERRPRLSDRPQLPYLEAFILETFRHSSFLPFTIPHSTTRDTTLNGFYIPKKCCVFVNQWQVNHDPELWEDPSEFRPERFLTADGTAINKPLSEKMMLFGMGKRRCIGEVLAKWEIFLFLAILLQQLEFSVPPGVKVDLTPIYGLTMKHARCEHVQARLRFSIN", "experiment": "CYP enzyme inhibition, fluorescent substrate (CEC)", "conditions": "read-out: Cyp IC50 1A2; CYP1A2, substrate CEC", "procedure": "as §1, §4"}, "B-Raf [2]": {"system": "B-Raf", "experiment": "B-Raf kinase activity biochemical assay (AlphaScreen, biotin-MEK1 phosphorylation)", "conditions": "for Biochemical activity ratio B/V600E: ratio of IC50 B-Raf / B-Raf V600E; for Biochemical activity ratio B/C: ratio of IC50 B-Raf / c-Raf-1", "procedure,_shortened": "as §3"}, "B-Raf [3]": {"target": "B-Raf (Homo sapiens (Human), UniProt P15056)", "sequence (P15056 whole entry)": "as the sequence (P15056 whole entry V600E) above, with E600V counted along it", "experiment": "B-Raf kinase activity biochemical assay (AlphaScreen, biotin-MEK1 phosphorylation)", "conditions": "B-Raf", "procedure,_shortened": "as §3"}, "[4]": {"conditions": "read-out: Cyp IC50 2C19, CYP2C19, substrate CEC"}, "[5]": {"conditions": "read-out: Cyp IC50 2C9, CYP2C9, substrate MFC"}}, "note": "Where two headings read alike, the source gives them in different places."}
{"smiles": "CC(C)c1ncnc2[nH]cc(C(=O)c3c(F)ccc(NS(=O)(=O)c4ccc(C(F)(F)F)cc4)c3F)c12", "note": "[P-1029, N-[2,4-Difluoro-3-(4-isopropyl-7H-pyrrolo[2,3-d]pyrimidine-5-carbonyl)-phenyl]-4-trifluoromethyl-benzenesulfonamide]", "values": [{"measurement": "IC50", "setting": "CYP2C19", "value": "5 to 10", "unit": "µM"}, {"measurement": "IC50", "setting": "CYP3A4(BFC)", "value": "> 10", "unit": "µM"}, {"measurement": "IC50", "setting": "CYP2C9", "value": "5 to 10", "unit": "µM"}, {"measurement": "IC50", "setting": "c-Raf-1", "value": "< 0.1", "unit": "µM"}, {"measurement": "turbidity threshold (L, M, H) 1.4", "setting": "[1]", "value": "M (moderate solubility if the threshold concentration is 31.3 μM to 250 μM)"}, {"measurement": "turbidity threshold (L, M, H) 7.4", "setting": "[1]", "value": "M (moderate solubility if the threshold concentration is 31.3 μM to 250 μM)"}, {"measurement": "IC50", "setting": "CYP2D6", "value": "> 10", "unit": "µM"}, {"measurement": "IC50", "setting": "B-Raf V600E", "value": "> 0.1", "unit": "µM"}, {"measurement": "Biochemical activity ratio V600E/C", "setting": "B-Raf V600E", "value": ">10"}, {"measurement": "IC50", "setting": "CYP1A2", "value": "> 10", "unit": "µM"}, {"measurement": "Biochemical activity ratio B/V600E", "setting": "B-Raf [2]", "value": "0.1-10"}, {"measurement": "Biochemical activity ratio B/C", "setting": "B-Raf [2]", "value": ">10"}, {"measurement": "IC50", "setting": "B-Raf [3]", "value": "< 0.1", "unit": "µM"}]}
{"smiles": "CCCc1ccc(S(=O)(=O)Nc2ccc(F)c(C(=O)c3c[nH]c4ncnc(O)c34)c2F)cc1", "note": "[P-1030, N-[2,4-Difluoro-3-(4-hydroxy-7H-pyrrolo[2,3-d]pyrimidine-5-carbonyl)-phenyl]-4-propyl-benzenesulfonamide]", "values": [{"measurement": "IC50", "setting": "CYP2C19; [4]", "value": "> 10", "unit": "µM"}, {"measurement": "IC50", "setting": "CYP3A4(BFC)", "value": "> 10", "unit": "µM"}, {"measurement": "IC50", "setting": "CYP2C9; [5]", "value": "> 10", "unit": "µM"}, {"measurement": "IC50", "setting": "c-Raf-1", "value": "< 0.1", "unit": "µM"}, {"measurement": "turbidity threshold (L, M, H) 4.5", "setting": "[1]", "value": "M (moderate solubility if the threshold concentration is 31.3 μM to 250 μM)"}, {"measurement": "turbidity threshold (L, M, H) 7.4", "setting": "[1]", "value": "M (moderate solubility if the threshold concentration is 31.3 μM to 250 μM)"}, {"measurement": "IC50", "setting": "CYP2D6", "value": "> 10", "unit": "µM"}, {"measurement": "IC50", "setting": "B-Raf V600E", "value": "> 0.1", "unit": "µM"}, {"measurement": "Biochemical activity ratio V600E/C", "setting": "B-Raf V600E", "value": ">10"}, {"measurement": "IC50", "setting": "CYP1A2", "value": "> 10", "unit": "µM"}, {"measurement": "Biochemical activity ratio B/V600E", "setting": "B-Raf [2]", "value": "<0.1"}, {"measurement": "Biochemical activity ratio B/C", "setting": "B-Raf [2]", "value": "0.1-10"}, {"measurement": "IC50", "setting": "B-Raf [3]", "value": "> 0.1", "unit": "µM"}]}
{"smiles": "Nc1ncnc2[nH]cc(C(=O)c3c(F)ccc(NS(=O)(=O)c4ccc(C(F)(F)F)cc4)c3F)c12", "note": "[P-1031, N-[3-(4-Amino-7H-pyrrolo[2,3-d]pyrimidine-5-carbonyl)-2,4-difluoro-phenyl]-4-trifluoromethyl-benzenesulfonamide]", "values": [{"measurement": "IC50", "setting": "CYP2C19; [4]", "value": "> 10", "unit": "µM"}, {"measurement": "IC50", "setting": "CYP3A4(BFC)", "value": "> 10", "unit": "µM"}, {"measurement": "IC50", "setting": "CYP2C9; [5]", "value": "> 10", "unit": "µM"}, {"measurement": "IC50", "setting": "c-Raf-1", "value": "< 0.1", "unit": "µM"}, {"measurement": "turbidity threshold (L, M, H) 1.4", "setting": "[1]", "value": "M (moderate solubility if the threshold concentration is 31.3 μM to 250 μM)"}, {"measurement": "turbidity threshold (L, M, H) 4.5", "setting": "[1]", "value": "M (moderate solubility if the threshold concentration is 31.3 μM to 250 μM)"}, {"measurement": "turbidity threshold (L, M, H) 6.8", "setting": "[1]; pH 6.8 (SIF)", "value": "M (moderate solubility if the threshold concentration is 31.3 μM to 250 μM)"}, {"measurement": "turbidity threshold (L, M, H) 7.4", "setting": "[1]", "value": "M (moderate solubility if the threshold concentration is 31.3 μM to 250 μM)"}, {"measurement": "IC50", "setting": "CYP2D6", "value": "> 10", "unit": "µM"}, {"measurement": "IC50", "setting": "B-Raf V600E", "value": "> 0.1", "unit": "µM"}, {"measurement": "Biochemical activity ratio V600E/C", "setting": "B-Raf V600E", "value": ">10"}, {"measurement": "IC50", "setting": "CYP1A2", "value": "> 10", "unit": "µM"}, {"measurement": "Biochemical activity ratio B/V600E", "setting": "B-Raf [2]", "value": "0.1-10"}, {"measurement": "Biochemical activity ratio B/C", "setting": "B-Raf [2]", "value": ">10"}, {"measurement": "IC50", "setting": "B-Raf [3]", "value": "> 0.1", "unit": "µM"}]}
